Tests used:
Assay type in all cases: binding
TPPII = target: T1, TPPII (Arabidopsis thaliana, UniProt F4JVN6); experiment: SPR competition on 3AESA chip; competition of 4AzSA photo-crosslinking; details: 1-5 mM SA, HBS-EP pH 7.4 (SPR); competes with 3AESA and 4AzSA
T1 construct: gene TPP2; N-terminal His6 (pET28a), from E. coli
T1 sequence (F4JVN6 1-1380): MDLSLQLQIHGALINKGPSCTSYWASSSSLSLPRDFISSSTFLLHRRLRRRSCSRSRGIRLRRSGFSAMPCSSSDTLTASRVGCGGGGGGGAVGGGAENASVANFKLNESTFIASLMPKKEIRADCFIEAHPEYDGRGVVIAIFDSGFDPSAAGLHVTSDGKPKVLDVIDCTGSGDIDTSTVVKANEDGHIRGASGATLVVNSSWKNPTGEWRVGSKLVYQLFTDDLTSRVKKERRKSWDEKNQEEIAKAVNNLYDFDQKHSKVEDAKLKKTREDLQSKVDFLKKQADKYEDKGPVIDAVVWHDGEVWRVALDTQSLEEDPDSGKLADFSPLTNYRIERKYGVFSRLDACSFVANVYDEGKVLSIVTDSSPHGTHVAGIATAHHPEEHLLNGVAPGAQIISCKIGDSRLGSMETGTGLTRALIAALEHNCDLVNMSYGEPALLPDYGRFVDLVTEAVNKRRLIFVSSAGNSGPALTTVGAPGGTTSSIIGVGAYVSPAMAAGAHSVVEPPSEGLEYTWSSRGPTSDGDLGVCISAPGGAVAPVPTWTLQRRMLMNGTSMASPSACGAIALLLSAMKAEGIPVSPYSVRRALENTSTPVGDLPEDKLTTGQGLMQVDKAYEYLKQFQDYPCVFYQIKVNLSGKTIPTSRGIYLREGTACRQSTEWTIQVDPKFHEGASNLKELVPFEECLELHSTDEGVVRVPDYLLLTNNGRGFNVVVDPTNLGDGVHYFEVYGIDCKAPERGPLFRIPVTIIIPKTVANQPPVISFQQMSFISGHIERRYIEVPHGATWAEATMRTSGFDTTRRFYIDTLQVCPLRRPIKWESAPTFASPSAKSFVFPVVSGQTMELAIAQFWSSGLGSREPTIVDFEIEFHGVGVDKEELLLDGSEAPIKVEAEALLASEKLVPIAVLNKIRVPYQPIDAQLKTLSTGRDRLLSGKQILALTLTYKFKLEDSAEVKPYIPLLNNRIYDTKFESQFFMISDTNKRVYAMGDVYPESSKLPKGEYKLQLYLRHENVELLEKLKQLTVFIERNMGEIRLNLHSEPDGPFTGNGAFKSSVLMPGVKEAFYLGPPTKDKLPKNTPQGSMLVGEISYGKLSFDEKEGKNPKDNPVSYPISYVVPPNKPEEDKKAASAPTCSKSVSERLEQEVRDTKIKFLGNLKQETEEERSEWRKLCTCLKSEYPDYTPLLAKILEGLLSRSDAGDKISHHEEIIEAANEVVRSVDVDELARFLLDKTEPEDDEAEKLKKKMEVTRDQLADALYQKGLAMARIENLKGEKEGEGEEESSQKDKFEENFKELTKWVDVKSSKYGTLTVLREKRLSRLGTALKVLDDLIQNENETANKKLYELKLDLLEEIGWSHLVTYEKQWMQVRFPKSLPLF

TRX-m1 = target: T2, TRX-m1 (Arabidopsis thaliana, UniProt O48737); experiment: as above; details: 1-5 mM SA, HBS-EP pH 7.4 (SPR); competes with 3AESA and 4AzSA
T2 construct: gene At1g03680; N-terminal His6 (pET28a), from E. coli
T2 sequence (O48737 49-179): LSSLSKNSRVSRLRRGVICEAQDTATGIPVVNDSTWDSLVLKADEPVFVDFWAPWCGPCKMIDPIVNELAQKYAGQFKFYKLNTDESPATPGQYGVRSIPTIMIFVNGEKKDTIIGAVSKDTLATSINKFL

RBCS1A = target: T3, RBCS1A (Arabidopsis thaliana, UniProt P10795); experiment: UV photo-crosslinking, anti-SA immunoblot; details: 50 uM 4AzSA, PBS, on ice, 254 nm UV; covalent; competed by SA
T3 construct: gene RBCS-1A; small subunit alone, N-terminal His6 (pET28a), from E. coli

Compound | SPR competition on 3AESA chip; competition of 4AzSA photo-crosslinking (TPPII) | SPR competition on 3AESA chip; competition of 4AzSA photo-crosslinking (TRX-m1) | UV photo-crosslinking, anti-SA immunoblot (RBCS1A)
O=C(O)c1ccccc1O [SA] | SA competes with 3AESA and 4AzSA for binding by TRX-m1, TPPII, SHM4, and LOX2 | SA competes with 3AESA and 4AzSA for binding by TRX-m1, TPPII, SHM4, and LOX2 | 
[N-]=[N+]=Nc1ccc(C(=O)O)c(O)c1 [4AzSA] |  |  | bound 3AESA and crosslinked to 4AzSA in an SA-inhibitable manner, indicating that they are SABPs
